Data taken from patent US10294202B2, “Pyrrolidinones as herbicides” (FMC Corporation, priority 2013, dated 2019).

Legend:
lambsquarters = experiment: Test C pre-/postemergence herbicide test; format: in vivo, Chenopodium album
In short: (§1)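 Test compounds, formulated in a surfactant-containing non-phytotoxic solvent blend, are applied to seeded loam/sand soil (preemergence) and to young plants at the 1- to 4-leaf stage in peat-based medium (postemergence). Plants stay 13 to 15 days under greenhouse conditions, then are scored visually relative to controls, 0 = no effect, 100 = complete control.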

waterhemp = experiment: Test C pre-/postemergence herbicide test; format: in vivo, Amaranthus rudis
In short: as §1

barnyardgrass = experiment: Test C pre-/postemergence herbicide test; format: in vivo, Echinochloa crus-galli
In short: as §1

corn = experiment: Test A pre-/postemergence herbicide test; format: in vivo, Zea mays; conditions: Postemergence
In short: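 Planted in loam–sand blend; treated the same day preemergence by directed soil spray, while separately grown plants at one- to two-leaf stage got postemergence spray. Compared visually with untreated controls after approximately 10 days; 100 means complete control.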

morningglory = experiment: Test C pre-/postemergence herbicide test; format: in vivo, Ipomoea coccinea
In short: as §1

soybean = experiment: Test C pre-/postemergence herbicide test; format: in vivo, Glycine max
In short: as §1

rice = experiment: Test B flooded paddy test; format: in vivo, Oryza sativa; conditions: 1000 g ai/ha, Flood; scale of 0 to 100 where 0 is no effect and 100 is complete control
In short: (§2)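 Plants grown to 2-leaf stage; pots flooded 3 cm above soil and compound applied directly into paddy water, depth held throughout. Visual rating against untreated controls after 13 to 15 days in greenhouse, 0 (no effect) to 100 (complete control).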

sedge, umbrella = experiment: Test B flooded paddy test; format: in vivo, Cyperus difformis; conditions: 1000 g ai/ha, Flood; scale of 0 to 100 where 0 is no effect and 100 is complete control
In short: as §2

ragweed = experiment: Test C pre-/postemergence herbicide test; format: in vivo, Ambrosia elatior
In short: as §1

oat, wild = experiment: Test C pre-/postemergence herbicide test; format: in vivo, Avena fatua; conditions: Postemergence
In short: as §1

johnsongrass = experiment: Test C pre-/postemergence herbicide test; format: in vivo, Sorghum halepense
In short: as §1

[1] = Postemergence, 31 g ai/ha, scale 0 to 100 (0 no effect, 100 complete control)
[2] = Postemergence, 62 g ai/ha, scale 0 (no effect) to 100 (complete control)
[3] = Postemergence, 125 g ai/ha, scale 0 to 100 (0 no effect, 100 complete control)
[4] = Postemergence, 250 g ai/ha, scale 0 to 100 (0 no effect, 100 complete control)
[5] = Preemergence, 62 g ai/ha, scale 0 to 100 (0 no effect, 100 complete control)
[6] = Preemergence, 125 g ai/ha, scale 0 to 100
[7] = Preemergence, 31 g ai/ha, scale 0 to 100

O=C1NCC(c2ccc(F)c(F)c2)C1C(=O)Nc1ccc(F)c(F)c1F (stereo not shown) [Compound 346]
Plant response rating, Lambsquarters (lambsquarters; [1]): 45 | Plant response rating, Lambsquarters (lambsquarters; [2]): 5 | Plant response rating, Lambsquarters (lambsquarters; [3]): 5 | Plant response rating, Lambsquarters (lambsquarters; [4]): 65 | Lambsquarters plant response rating (lambsquarters; [5]): 35 | Plant response rating, Lambsquarters (lambsquarters; [6]): 100 | Plant response rating (scale of 0 to 100), Lambsquarters (lambsquarters; Preemergence, 250 g ai/ha): 100 | Plant response rating, Lambsquarters (lambsquarters; [7]): 35 | Plant response rating, Waterhemp (waterhemp; [1]): 0 | Plant response rating, Waterhemp (waterhemp; [2]): 0 | Plant response rating, Waterhemp (waterhemp; [3]): 15 | Plant response rating, Waterhemp (waterhemp; [4]): 40 | Waterhemp plant response rating (waterhemp; [5]): 25 | Plant response rating, Waterhemp (waterhemp; [6]): 10 | Plant response rating, Waterhemp (waterhemp; [7]): 75 | Plant response rating, Barnyardgrass (barnyardgrass; [1]): 0 | Plant response rating, Barnyardgrass (barnyardgrass; [2]): 0 | Plant response rating, Barnyardgrass (barnyardgrass; [3]): 30 | Plant response rating, Barnyardgrass (barnyardgrass; [4]): 60 | Barnyardgrass plant response rating (barnyardgrass; [5]): 70 | Plant response rating, Barnyardgrass (barnyardgrass; Preemergence, 125 g ai/ha, scale 0 to 100 (0 no effect, 100 complete control)): 95 | Plant response rating (scale of 0 to 100; 0 is no effect, 100 is complete control), Barnyardgrass (barnyardgrass; Preemergence, 250 g ai/ha): 98 | Plant response rating, Barnyardgrass (barnyardgrass; [7]): 50 | Plant response rating, Corn (corn; 125 g ai/ha, visual rating on 0 to 100 scale (0 no effect, 100 complete control), approx. 10 days): 20 | Plant response rating, Corn (corn; 500 g ai/ha, 0 to 100 scale (0 no effect, 100 complete control)): 40 | Plant response rating, Morningglory (morningglory; [1]): 0 | Plant response rating, Morningglory (morningglory; [2]): 5 | Plant response rating, Morningglory (morningglory; [3]): 15 | Plant response rating, Morningglory (morningglory; [4]): 5 | Morningglory plant response rating (morningglory; [5]): 0 | Plant response rating, Morningglory (morningglory; [6]): 30 | Plant response rating (scale of 0 to 100), Morningglory (morningglory; Preemergence, 250 g ai/ha): 0 | Plant response rating, Morningglory (morningglory; [7]): 0 | Plant response rating, Soybean (soybean; [1]): 0 | Plant response rating, Soybean (soybean; [2]): 5 | Plant response rating, Soybean (soybean; [3]): 0 | Plant response rating, Soybean (soybean; [4]): 5 | Soybean plant response rating (soybean; [5]): 0 | Plant response rating, Soybean (soybean; [6]): 0 | Plant response rating, Soybean (soybean; [7]): 0 | Plant response rating, Rice (rice): 0 | Plant response rating, Sedge, Umbrella (sedge, umbrella): 0 | Plant response rating, Ragweed (ragweed; [1]): 0 | Plant response rating, Ragweed (ragweed; [2]): 0 | Plant response rating, Ragweed (ragweed; [3]): 0 | Plant response rating, Ragweed (ragweed; [4]): 20 | Ragweed plant response rating (ragweed; [5]): 35 | Plant response rating, Ragweed (ragweed; [6]): 35 | Plant response rating, Ragweed (ragweed; [7]): 50 | Plant response rating, Oat, Wild (oat, wild; 31 g ai/ha, scale 0 to 100 (0 no effect, 100 complete control)): 0 | Plant response rating, Oat, Wild (oat, wild; 62 g ai/ha, scale 0 (no effect) to 100 (complete control)): 0 | Plant response rating, Oat, Wild (oat, wild; 125 g ai/ha, scale 0 to 100 (0 no effect, 100 complete control)): 0 | Plant response rating, Oat, Wild (oat, wild; 250 g ai/ha, scale 0 to 100 (0 no effect, 100 complete control)): 0 | Plant response rating, Johnsongrass (johnsongrass; [1]): 100 | Plant response rating, Johnsongrass (johnsongrass; [2]): 0 | Plant response rating, Johnsongrass (johnsongrass; [3]): 0 | Plant response rating, Johnsongrass (johnsongrass; [4]): 0 | Johnsongrass plant response rating (johnsongrass; [5]): 0 | Plant response rating, Johnsongrass (johnsongrass; [6]): 20 | Plant response rating (scale of 0 to 100), Johnsongrass (johnsongrass; Preemergence, 250 g ai/ha): 60 | Plant response rating, Johnsongrass (johnsongrass; [7]): 0
